Here are results for 2 substances from US5770178A, “Metal chelate forming peptides and use thereof” (Nihon Medi-Physics Co., Ltd., priority 1994, dated 1998).

In assay [1] the test system is Tumor cells HEp2 (Human Epidermoid Carcinoma). The experiment in a line: Imaging of tumor in model mouse, tumor/muscle radioactivity ratio. The assay is classed as in vivo, BALB/C nude mouse. The settings on record: i.v. How it is done: Tumor cells HEp2 (5×10^6 cells, Human Epidermoid Carcinoma; ATCC No. CCL 23) were suspended in 1.0 ml of medium (Minimum essential medium (Eagle's) with Earle's BSS, 90% fetal bovine serum, 10%), and 100 μl of the suspension was subcutaneously injected to BALB/C nude mouse (6 weeks age) at the body side. […] Five and 20 minutes after the injection, the animal was imaged with a gamma camera.
Immediately after the imaging, the animal was sacrificed and examined for the distribution of the radioactivity in each organ using NaI single channel analyzer to determine a ratio of the radioactivity in tumor site to the radioactivity in muscle site (T/B ratio).

The test system of assay [2] is inflammation site (Staphylococcus aureus). To be noted: S. aureus inflammation rat, i.v. As for the experimental part:
Staphylococcus aureus 10^8 cells were suspended in 1 ml of physiological saline, and 100 μl of the suspension was intramuscularly administered to SD rats weighing about 220 g at the right calf. […] Thirty and 120 minutes after the peptide was injected, the animal was imaged with a gamma camera. Regions of interest were selected from the obtained image to determine a ratio T/B of the radioactivity in inflammation site (T) to the radioactivity in normal site (B).

Where no end group is shown, it is not given here.

Turning to “Tc-99m-KYCAREPPTRTNAYWGQG (also: Tc-99m label)”, the “Imaging of tumor site (gamma camera)” value in assay [1] (20 minutes after injection) was “clearly imaged”. Further, in assay [1] (twenty minutes after injection, n=3), the “ratio of the radioactivity in tumor site to the radioactivity in muscle site (T/B ratio)” value is 4.50±0.71.
As for Tc-99m-KYCGGKTKPREQQYNSTYRVV-NH2, the “Imaging of inflammation site (gamma camera)” value in assay [2] (30 and 120 minutes after injection) is “clearly imaged”. Besides, in assay [2] (regions of interest of image, n=6), the “ratio T/B of the radioactivity in inflammation site (T) to the radioactivity in normal site (B)” value was found to be 3.26±0.18.
